# Assay results published in paper PMC9645260, “Small-molecule inhibitors of P-Rex guanine-nucleotide exchange factors” (Small GTPases, 2022).
# System: primary mouse neutrophils
# Test: Neutrophil ROS production, fMLP-stimulated
# Format: cell-based
# Settings: 10 µM fMLP
# Procedure: Prex^−/− mice (Prex1^−/−Prex2^−/−) with general P-Rex deficiency were described previously and were compared to Prex^+/+ (Prex1^+/+Prex2^+/+) control mice on the same genetic background (C57Bl6/129Ola backcrossed seven times to C57Bl6). Mice were group-housed (up to 5) under specific opportunistic pathogen-free isolator conditions in Babraham’s small animal barrier facility that uses 12 h light/dark cycles with dusk and dawn settings, and were fed chow diet and water ad libitum. Mice from both sexes were used for experiments, at young-adult age (between 8 and 14 weeks), and were sex- and age-matched between genotypes within experiments. […]
# Mature primary neutrophils were isolated from the bone marrow of age- and sex-matched Prex^+/+ and Prex^−/− mice freshly each day at 4°C, using Percoll^Plus (GE Healthcare) gradient, as described, using endotoxin-free media throughout. Isolated neutrophils were 70–90% pure, as assessed by KwikDiff staining of cytospins. ROS production was measured by real-time chemiluminescence assay as described, except that neutrophils were incubated with PREX-in1 before the assay. […] Real-time ROS production was recorded in a Berthold MicroLumat Plus luminometer (Berthold Technologies) at 37°C, for 2.5 min with fMLP stimulation or for 10 min with PMA stimulation. […]
smiles,measurement,setting,value
"COc1ccc(-c2[nH]nc3c2C(c2ccc(-c4ccc(Cl)cc4)o2)C(C#N)=C(N)O3)cc1 (centres unmarked) [PREX-in1, 6-amino-4-[5-(4-chlorophenyl)-2-furyl]-3-(4-methoxyphenyl)-2,4-dihydropyrano[2,3-c]pyrazole-5-carbonitrile]",inhibition at 1 µM,"Mus musculus, Neutrophil, 7 min, Prex+/+ neutrophils, 1 µM for 7 min, read-out: inhibition of ROS production overall",50%
same,effect on ROS response,"Prex-/- neutrophils, 1 µM",did not affect
